Target: Guanine nucleotide-binding protein G(o) subunit alpha (Homo sapiens, UniProt P09471)
Assay: modulators of RGS16 binding to Galphao – biochemical, multiplexed bead assay, additional SAR round, SAR follow-up (AID 2828)

Guanine nucleotide-binding protein G(o) subunit alpha, sequence (P09471 whole entry): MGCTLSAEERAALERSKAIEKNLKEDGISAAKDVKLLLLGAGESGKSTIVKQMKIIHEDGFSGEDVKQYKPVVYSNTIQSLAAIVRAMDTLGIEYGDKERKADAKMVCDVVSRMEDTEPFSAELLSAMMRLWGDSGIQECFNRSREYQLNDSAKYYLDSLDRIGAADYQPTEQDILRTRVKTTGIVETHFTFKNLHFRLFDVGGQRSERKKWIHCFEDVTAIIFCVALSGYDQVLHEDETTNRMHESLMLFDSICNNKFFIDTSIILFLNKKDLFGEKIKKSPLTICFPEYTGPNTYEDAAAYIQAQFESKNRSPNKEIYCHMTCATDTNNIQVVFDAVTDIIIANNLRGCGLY

| Compound | EC50 [µM] |
| --- | --- |
| O=C(c1sc2cc([N+](=O)[O-])ccc2c1Cl)N1CCNCC1 | > 30 |
| O=C(NCCCN1CCOCC1)c1sc2cc([N+](=O)[O-])ccc2c1Cl [3-chloranyl-N-(3-morpholin-4-ylpropyl)-6-nitro-1-benzothiophene-2-carboxamide] | > 30 |

Next, values leading:

| EC50 [µM] | Compound |
| --- | --- |
| > 30 | O=C(NCCCn1ccnc1)c1sc2cc([N+](=O)[O-])ccc2c1Cl [3-chloro-N-[3-(1-imidazolyl)propyl]-6-nitro-1-benzothiophene-2-carboxamide] |
| > 30 | NC(=O)c1sc2cc([N+](=O)[O-])ccc2c1Cl [KSC-1-100] |
| > 30 | Cc1ccc2c(Cl)c(C(=O)NCCCN3CCOCC3)sc2c1 [KUC103874N] |
